The text below walks through data of PMC11077991, “The small molecule CBR-5884 inhibits the Candida albicans phosphatidylserine synthase” (mBio, 2024).

In one series the test system is purified Cho1. In words: CBR-5884 washout assay (radioactive PS synthase assay). The series is classed as biochemical, Candida albicans. The settings on record: 100 µM preincubated 2 h, buffer exchange. The procedure: For CBR-5884 washout assays, purified Cho1 was incubated with CBR-5884 at a final concentration of 100 µM, or equivalent DMSO, in 100 µL volume on ice for 2 h. The CBR-5884 was then washed out by exchanging with 4 mL 50 mM Tris-HCl at pH 8.0 and 0.1% digitonin three times in the Amicon Ultra Centrifugal Filter (10 kDa MWCO). The sample was concentrated to the volume of approximately 500 µL, and protein concentration was determined using the Pierce detergent-compatible Bradford assay kit. The reaction was set up with 50 mM Tris-HCl (pH 8.0), 1 mM MnCl2, 0.1% Triton X-100, 0.1% digitonin, 0.1 mM (4.7 mol %), 16:0 CDP-DAG (Avanti, cat# 870510), and 10 mM L-serine [spiked with 5% (by volume) L-[3H]-serine (15 Ci/mmol)] at a total volume of 100 µL, in the presence of 100 µM CBR-5884 or equivalent DMSO solvent. The reaction was stopped at 20, 40, and 60 min, and specific activity was calculated based on the slope of linear PS production, representing the initial velocity.

The target of the next series is purified hexameric Cho1 (Candida albicans, UniProt A0A1D8PF32). In words: kinetic curves of purified hexameric Cho1 (radioactive PS synthase assay). The series is classed as biochemical. The procedure:
For the kinetic curves, the specific activity was measured in the reaction containing 50 mM Tris-HCl (pH 8.0), 1 mM MnCl2, 0.025%–0.3% Triton X-100 and 0.033%–0.07% digitonin with 0.75–1.5 µg purified Cho1 protein. The concentrations of 18:1 CDP-DAG (Avanti, cat# 870520) and serine are indicated in the graphs, and the mol % of CDP-DAG was kept between 4.2% and 5.0% for the curve where CDP-DAG was varied (Fig. 6C and D) and at 4.8% (200 μM) for the curve where serine was varied (Fig. 6B). The concentrations of CBR-5884 used in each reaction are indicated in the graph, and CBR-5884 was incubated with purified Cho1 protein in the presence of CDP-DAG on ice for at least 2 h before the addition of L-[^3H]-serine. The reaction was stopped at 20, 40, and 60 min, and specific activity was calculated based on the slope of linear PS production, representing the initial velocity.

For series [1], the system named is cancer cell lines with high serine biosynthetic activity (melanoma and breast cancer lines). Details: method as in PMID 26831078. The settings on record: cited from earlier work.
The test system of series [2] is wild-type C. albicans cell wall β(1-3)-glucan exposure. In words: fluorescence imaging of unmasked β(1-3)-glucan. In kind it is cell-based, Candida albicans. Particulars: 170 µM, YPD. The procedure:
Wild-type and cho1ΔΔ cells were grown in YPD overnight (~16 h), and back diluted to fresh YPD with OD600 of ~0.1. The cells were then shaken at 225 rpm for 3 h before 170 µM CBR-5884 or equivalent DMSO were added. The cells were further shaken for 30, 60, 120 min before staining with anti-β(1-3)-glucan antibody. The cells were stained as previously described ([57], [97]) with the exception that goat anti-mouse antibody conjugated to Alexa Fluor 488 (Jackson ImmunoResearch) was used as the secondary antibody. For imaging, Candida cells were resuspended in 200 µL of Fluoromount-G mounting medium and visualized with a Leica SP8 white light laser confocal microscope. The pictures were taken through Leica Application Suite X office software and quantified as described above.

Series [3] is classed as physicochemical. The settings on record: 12 h, 170 µM. The protocol:
However, it was observed that the impact of CBR-5884 on cell growth was only temporary, with a delay lasting 12 h. […] To disentangle these two possibilities, experiments were conducted where both CBR-5884 and DMSO were subjected to 12 h of agitation at 30°C before being introduced to live cells. The growth of these cells was monitored over the next 14 h, with an OD600 measurement every 2 h, to assess the persistence of CBR-5884’s efficacy (Fig. 4F); in the meantime, cells that had been grown in 170 µM CBR-5884 for 12 and 24 h were transferred into fresh media containing new CBR-5884, which was allowed to grow for another 14 h, to probe the rising of resistance (Fig. 4G). In both experimental setups, cells grew slowly in the presence of CBR-5884 compound compared to DMSO control.
The growth curves with LOC14 and CBR-5884 treatments were measured from 2 to 30 h with OD600 measurements every 2 h. A final concentration of 170 µM CBR-5884, 430 µM LOC14, and 5 mM serine was added into each group as indicated. To test the stability of CBR-5884, minimal medium supplemented with 170 µM CBR-5884 or equivalent DMSO was agitated for 12 h before the introduction of wildtype C. albicans SC5314 strain, and growth curves were recorded from 0 to 14 h with OD600 measurement every 2 h. […] The growth curves were recorded from 0 to 14 h with OD600 measurement every 2 h. […]

Sequence of purified hexameric Cho1 (A0A1D8PF32 entry or part of it): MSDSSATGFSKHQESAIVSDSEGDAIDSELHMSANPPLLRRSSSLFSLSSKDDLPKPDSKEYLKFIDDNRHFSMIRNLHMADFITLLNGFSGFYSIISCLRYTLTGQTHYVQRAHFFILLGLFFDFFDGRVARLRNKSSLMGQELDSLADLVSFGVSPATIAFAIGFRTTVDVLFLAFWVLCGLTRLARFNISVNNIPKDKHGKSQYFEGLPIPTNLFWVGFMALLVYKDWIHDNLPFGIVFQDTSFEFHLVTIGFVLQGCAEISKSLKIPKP

Broadly, the Ki is the equilibrium dissociation constant of an inhibitor or competing ligand from its target. Consider `CCOC(=O)c1sc(NC(=O)c2ccco2)c(SC#N)c1C` [CBR-5884], for which, in the series on purified Cho1, the “inhibition after preincubation and washout” value is “absence of inhibition”. In addition, the Ki at purified hexameric Cho1 was determined as 1550 nM. Further, the “inhibition of Cho1 activity at sub-saturating serine” value at purified hexameric Cho1 (serine 20 mM, CDP-DAG 25-300 µM) is reported as “observed”. Moreover, the “inhibition of Cho1 activity at saturating serine” value on purified hexameric Cho1 (serine 32 mM, CDP-DAG varied) was “inhibition was overcome”. Also, on purified hexameric Cho1 (serine varied, CDP-DAG 200 µM), the pattern of inhibition entry is listed as “competitive inhibition”. Moreover, the “toxicity to cancer cell lines” value in series [1] is “selectively toxic”. Moreover, in series [2] (30-min treatment), the “β(1-3)-glucan unmasking vs wild-type in DMSO” value was “significantly increased unmasking”. The “β(1-3)-glucan unmasking vs cho1ΔΔ mutant” value in series [2] (120-min treatment) is recorded as “more unmasking than the cho1ΔΔ mutant”. Moreover, the “stability and effectiveness under agitation” value in series [3] is on record as “at least 12 h”.
